Data: PMC4467461, “Small-molecule activation of SERCA2a SUMOylation for the treatment of heart failure” (Nature Communications, 2015)

Tests used:
[1] = test system: pressure overload-induced mouse model of HF (TAC); assay: Invasive P–V loop haemodynamics in TAC heart failure mice; assay type: in vivo
Experimental: B6C3F1 mice were acquired from Jackson Laboratories. Mice underwent TAC using a supraclavicular construction model as described. TAC or sham surgery was performed in 8∼10-week-old male mice (25∼30 g). Mice were anaesthetized with intraperitoneal ketamine (95 mg kg^−1) and xylaxine (5 mg kg^−1), and ventilated with a tidal volume of 0.1 ml and a respiratory rate of 110 breaths per minute (Harvard Apparatus, MA, USA). A 2- to 3-mm longitudinal cut was made in the proximal portion of the sternum, allowing visualization of the aortic arch. The transverse aortic arch was ligated between the innominate and left common carotid arteries with an overlaying 27-gauge needle. The needle was immediately removed, leaving a discrete region of constriction. Animal sham group underwent a similar procedure without ligation. Only animals with fractional shortening < 50% were determined as being in HF and suitable for further study.
One day after echocardiography, we performed in-vivo haemodynamics. The mice were anaesthetized with an intraperitoneal injection mixture of urethane (1 mg g^−1), etomidate (10 μg g^−1) and morphine (1 μg g^−1), and were then intubated via a tracheotomy and mechanically ventilated at 7 μl g^−1 tidal volume and 120 respirations per minute. A small incision was made in the apex and a French Millar cathether connected a high-fidelity pressure transducer (Scisense, London, ON, Canada) inserted into the LV. Haemodynamic recordings were performed after 5∼10 min of stable HR. The rate of pressure rise (+dP/dt) and maximal pressure, the time constant of isovolumic relaxation and HR were recorded and analysed. To determine the relative effects of the admittance and conductance techniques to contractility change induced by N106 compound infusion, whole haemodynamic function was recorded at both baseline and after administration of N106 compound through the external jugular vein. N106 compound was solubilized in 10% DMSO (Sigma-Aldrich), 10% Tween-80 (Sigma-Aldrich) and saline for in-vivo experiments. N106 or vehicle solutions were continuously infused through the external jugular vein at a rate of 50 μl min^−1 for 2 min in each dose. Whole haemodynamic functions of increasing dose of N106 of each mouse were recorded for ∼4 h. Each dose of N106 solution was infused after back to baseline of heart function.

[2] = test system: HEK-293 cells co-transfected with SERCA2a and SAE1 mutants (Q312A and V315F); assay: N106-induced SERCA2a SUMOylation in HEK-293 cells overexpressing SAE1 mutants; assay type: cell-based
Experimental: Supplementary Figure 4. Effects of overexpressing SAE1 mutants on N106-induced SERCA2a SUMOylation. (a) HEK-293 cells were co-transfected with SERCA2a and SAE1 wild type or SAE1 mutants (Q312A and V315F) for 24 hours. And then the transfecting HEK-293 cells were incubated with different concentration of N106 for 24 hours. The level of SERCA2a SUMOylation was determined by immunoprecipitation and following with Western blotting. (b) The levels of SAE1 overexpression were determined by Western blotting with anti- […]
(1 picture or pasted object on this page, not shown here)

COc1ccc(-c2nnc(Nc3nc4c(OC)cccc4s3)o2)cc1 [Compound N106, N-(4-methoxybenzo[d]thiazol-2-yl)-5-(4-methoxyphenyl)-1,3,4-oxadiazol-2-amine]
+dP/dtmax ([1]; 0.1 mg kg^−1 infusion): 4803.33±91.78 mm Hg s^−1
HR ([1]; 0.1 mg kg^−1 infusion): 417.11±4.54 bpm
Pmax ([1]; 0.1 mg kg^−1 infusion): 115.11±1.27 mm Hg
τ, time constant of isovolumetric relaxation ([1]; 0.1 mg kg^−1 infusion): 7.50 ± 0.15 ms
ESPVR slope ([1]; 0.1 mg kg^−1 infusion via jugular vein): 9.04±1.20 mm Hg μl^−1
+dP/dtmax ([1]; 1 mg kg^−1 infusion): 5448.83±147.09 mm Hg s^−1
ESPVR slope ([1]; 1 mg kg^−1 infusion): 11.26±1.00 mm Hg μl^−1
HR ([1]; 1 mg kg^−1 infusion): 422.33±3.79 bpm
Pmax ([1]; 1 mg kg^−1 infusion): 123.66±5.28 mm Hg
τ, time constant of isovolumetric relaxation ([1]; 1 mg kg^−1 infusion): 6.40 ± 0.15 ms
+dP/dtmax ([1]; 10 mg kg^−1 infusion): 6229.41±103.23 mm Hg s^−1
ESPVR slope ([1]; 10 mg kg^−1 infusion): 20.3±0.41 mm Hg μl^−1
HR ([1]; 10 mg kg^−1 infusion): 455.08±5.62 bpm
Pmax ([1]; 10 mg kg^−1 infusion): 124.50±4.26 mm Hg
τ, time constant of isovolumetric relaxation ([1]; 10 mg kg^−1 infusion): 6.27 ± 0.13 ms
N106-induced increase in SUMOylation of SERCA2a in mutant SAE1-overexpressing cells versus overexpressed WT ([2]; 24 h): weaker
Dose-dependent increases in SERCA2a SUMOylation in cells overexpressing mutants ([2]; different concentration of N106, 24 h): not observed
